{"source": "patent US3984390A", "about": "“Novel process for producing phleomycin group antibiotics” (Zaidan Hojin Biseibutsu Kagaku Kenkyu Kai, priority 1972, dated 1976)", "key": {"[1]": {"system": "Mycobacterium smegmatis 607", "assay": "Antimicrobial potency, cylinder agar plate method, Bleomycin A2 (copper-free base) assumed as 1000 U/mg", "type": "cell-based", "details": "Mycobacterium smegmatis 607", "experimental": "1. Antimicrobial potency was assayed by a cylinder agar plate method on the basis of Bleomycin A2 (copper-free base) assumed as 1000 U/mg, using Mycobacterium smegmatis 607 as test organism.\n^(1) Assayed by a cylinder-agar plate method using Mycobacterium\nsmegmatis 607 as test organism, the potency of bleomycin A2\n(copper-free base) being assumed as 1000 unit/mg.\nThe resulting compound has 0.65 of Rf value of the Silica gel thin layer chromatograph (CH3 OH: 10 %-CH3 COONH4 : 10 %-NH4 OH = 10 : 9 : 1) and 0.53 of Rf value of the Avicel thin layer chromatography (n-C3 H7 OH : pyridine : CH3 COOH : H2 O = 15 : 10 : 3 : 12) which are same with those of the 3-morpholinopropylaminobleomycin. The antimicrobial activity to Mycobacterium smegmatis 607 by the cylinder-agar plate method (the standard copper-free bleomycin A2 free base 1,000 U/mg) was 605 U/mg."}, "[2]": {"system": "Ehrlich ascites carcinoma", "assay": "Antitumor activity and toxicity in ICR-SLC mouse inoculated with Ehrlich ascites carcinoma, i.p. for ten consecutive days", "type": "in vivo", "details": "for Chemotherapeutic index: Table 5, ten consecutive days into peritoneal cavity, evaluated 50 days after beginning", "experimental": "The phleomycin was administered for ten consecutive days into peritoneal cavity of a ICR-SLC mouse, into which Ehrlich ascites carcinoma had been inoculated. Fifty days after the beginning of the experiment, measurements were made for (1) the number of dead mouse owing to toxicity, (2) the number of survived mouse, (3) mean survival period in 50 days, and (4) the ratio of mean survival period to that of reference mouse multiplied by 100. The chemotherapeutic index was calculated from the values of ED50 (50 % effective dose) and LD50 (50 % lethal dose) which were obtained as given below.\nED50 value: The maximum dose level within the range of logevity ratio of 100 to 200.\nLD50 value: Calculated according to Behrens-Karber method from the data of (1) and (2).\n^(2) A bleomycin was administered for ten consecutive days into\nperitoneal cavity of a ICR-SLC mouse, where Ehrlich ascites carcinoma had\nbeen inoculated, and 50 days after the beginning of experiment the […]"}, "[3]": {"details": "bleomycins of Table 5, bleomycin A2 (copper-free base) = 1000 unit/mg"}, "[4]": {"details": "0.19 mg/kg/day for 10 days i.p."}, "[5]": {"details": "0.39 mg/kg/day for 10 days i.p."}, "[6]": {"details": "0.78 mg/kg/day for 10 days i.p."}, "[7]": {"details": "1.56 mg/kg/day for 10 days i.p."}, "[8]": {"details": "3.12 mg/kg/day for 10 days i.p."}, "[9]": {"details": "6.25 mg/kg/day for 10 days i.p."}, "[10]": {"details": "12.5 mg/kg/day for 10 days i.p."}, "[11]": {"details": "25.0 mg/kg/day for 10 days i.p."}}}
{"compound": "3-N-Cyclohexylaminopropylaminobleomycin", "values": [{"measurement": "Antimicrobial potency", "setting": "[1]; [3]", "result": 6560, "unit": "Unit/mg"}, {"measurement": "Chemotherapeutic index", "setting": "[2]", "result": 16.3}]}
{"compound": "3-Piperidinopropylaminobleomycin", "values": [{"measurement": "Antimicrobial potency", "setting": "[1]; [3]", "result": 1257, "unit": "Unit/mg"}, {"measurement": "Chemotherapeutic index", "setting": "[2]", "result": 14.4}]}
{"compound": "3-Pyrrolidinopropylaminobleomycin", "values": [{"measurement": "Antimicrobial potency", "setting": "[1]; [3]", "result": 1066, "unit": "Unit/mg"}, {"measurement": "Chemotherapeutic index", "setting": "[2]", "result": 19.2}]}
{"compound": "3-S,S-Dimethylmercaptopropylaminophleomycin", "values": [{"measurement": "Antimicrobial potency", "setting": "[1]; phleomycins of Table 1, Bleomycin A2 (copper-free base) = 1000 U/mg", "result": 865, "unit": "unit/mg"}, {"measurement": "Average longevity (mean survival period in 50 days)", "setting": "[2]; [4]", "result": 18.0}, {"measurement": "Longevity ratio (mean survival period to that of reference mouse multiplied by 100)", "setting": "[2]; [4]", "result": 123}, {"measurement": "Toxicity, number dead/total number", "setting": "[2]; [4]", "result": "0/5"}, {"measurement": "Viability (after 50 days), number survived/total number", "setting": "[2]; [4]", "result": "0/5"}, {"measurement": "Average longevity (mean survival period in 50 days)", "setting": "[2]; [5]", "result": 21.0}, {"measurement": "Longevity ratio (mean survival period to that of reference mouse multiplied by 100)", "setting": "[2]; [5]", "result": 144}, {"measurement": "Toxicity, number dead/total number", "setting": "[2]; [5]", "result": "0/5"}, {"measurement": "Viability (after 50 days), number survived/total number", "setting": "[2]; [5]", "result": "0/5"}, {"measurement": "Average longevity (mean survival period in 50 days)", "setting": "[2]; [6]", "result": 29.0}, {"measurement": "Longevity ratio (mean survival period to that of reference mouse multiplied by 100)", "setting": "[2]; [6]", "result": 199}, {"measurement": "Toxicity, number dead/total number", "setting": "[2]; [6]", "result": "0/5"}, {"measurement": "Viability (after 50 days), number survived/total number", "setting": "[2]; [6]", "result": "2/5"}, {"measurement": "Average longevity (mean survival period in 50 days)", "setting": "[2]; [7]", "result": 36.8}, {"measurement": "Longevity ratio (mean survival period to that of reference mouse multiplied by 100)", "setting": "[2]; [7]", "result": 252}, {"measurement": "Toxicity, number dead/total number", "setting": "[2]; [7]", "result": "0/5"}, {"measurement": "Viability (after 50 days), number survived/total number", "setting": "[2]; [7]", "result": "3/5"}, {"measurement": "Average longevity (mean survival period in 50 days)", "setting": "[2]; [8]", "result": 44.0}, {"measurement": "Longevity ratio (mean survival period to that of reference mouse multiplied by 100)", "setting": "[2]; [8]", "result": 301}, {"measurement": "Toxicity, number dead/total number", "setting": "[2]; [8]", "result": "0/5"}, {"measurement": "Viability (after 50 days), number survived/total number", "setting": "[2]; [8]", "result": "4/5"}, {"measurement": "Average longevity (mean survival period in 50 days)", "setting": "[2]; [9]", "result": 33.8}, {"measurement": "Longevity ratio (mean survival period to that of reference mouse multiplied by 100)", "setting": "[2]; [9]", "result": 232}, {"measurement": "Toxicity, number dead/total number", "setting": "[2]; [9]", "result": "3/5"}, {"measurement": "Viability (after 50 days), number survived/total number", "setting": "[2]; [9]", "result": "1/5"}, {"measurement": "Average longevity (mean survival period in 50 days)", "setting": "[2]; [10]", "result": 13.0}, {"measurement": "Longevity ratio (mean survival period to that of reference mouse multiplied by 100)", "setting": "[2]; [10]", "result": 89}, {"measurement": "Toxicity, number dead/total number", "setting": "[2]; [10]", "result": "5/5"}, {"measurement": "Viability (after 50 days), number survived/total number", "setting": "[2]; [10]", "result": "0/5"}, {"measurement": "Average longevity (mean survival period in 50 days)", "setting": "[2]; [11]", "result": 8.6}, {"measurement": "Longevity ratio (mean survival period to that of reference mouse multiplied by 100)", "setting": "[2]; [11]", "result": 59}, {"measurement": "Toxicity, number dead/total number", "setting": "[2]; [11]", "result": "5/5"}, {"measurement": "Viability (after 50 days), number survived/total number", "setting": "[2]; [11]", "result": "0/5"}, {"measurement": "Chemotherapeutic index (LD50/ED50)", "setting": "[2]; Tables 2 to 4, i.p., for 10 days, 72000 min", "result": 8.5}, {"measurement": "Prolongation effect on the survival period of ICR-SLC mouse inoculated with Ehrlich ascites carcinoma", "setting": "[2]; as shown in Tables 2 and 3", "result": "distinct prolongation effect"}, {"measurement": "LD50 (50 % lethal dose)", "setting": "[2]; i.p., for 10 days, Behrens-Karber method, 72000 min", "result": 6.6, "unit": "mg/kg/day"}, {"measurement": "ED50 (50 % effective dose)", "setting": "[2]; i.p., for 10 days, maximum dose level within the range of longevity ratio of 100 to 200, 72000 min", "result": 0.78, "unit": "mg/kg/day"}]}
{"compound": "3-[3-N-(1-Phenylethyl)aminopropylamino]propylaminobleomycin", "values": [{"measurement": "Antimicrobial potency", "setting": "[1]; [3]", "result": 9470, "unit": "Unit/mg"}, {"measurement": "Chemotherapeutic index", "setting": "[2]", "result": 18.1}]}
{"compound": "Cc1c(N)nc(C(CC(N)=O)NCC(N)C(N)=O)nc1C(=O)NC(C(=O)NC(C)C(O)C(C)C(=O)NC(C(=O)NCCc1nc(-c2nc(C(=O)NCCC[S+](C)C)cs2)cs1)C(C)O)C(OC1OC(CO)C(O)C(O)C1OC1OC(CO)C(O)C(OC(N)=O)C1O)c1cnc[nH]1", "note": "(centres unmarked) [3-S,S-Dimethylmercaptopropylaminobleomycin]", "values": [{"measurement": "Antimicrobial potency", "setting": "[1]; [3]", "result": 920, "unit": "Unit/mg"}, {"measurement": "Chemotherapeutic index", "setting": "[2]", "result": 12.0}]}
